{"source": "patent US20140308733A1", "about": "“METHOD FOR INDUCING GERMINATION OF SPORE FORMING BACTERIUM” (CALPIS CO., LTD., priority 2011, published 2014)", "key": {"[1]": {"tested_on": "Bacillus subtilis C-3102 (FERM BP-1096)", "assay": "Influence of the concentration of germination inducer on turbidity change (Example 2)", "assay_type": "cell-based", "settings": "for turbidity (630 nm): 37° C., 150 rpm", "experimental": "Next, 500 μL aliquots of bacterial suspension of Bacillus subtilis C-3102 (FERM BP-1096) used in Example 1 were mixed with 500 μL of ferulic acid, or vanillic acid solutions described above, and the mixtures were adjusted to ferulic acid (10 to 600 ppm), or vanillic acid (10 to 1800 ppm) concentrations set forth in Table 2. The concentrations of ferulic acid at the reaction initiation were 10, 100, 300, and 600 ppm, and the concentrations of vanillic acid at the reaction initiation were 10, 100, 300, 600, 1200, and 1800 ppm.\nAs same as Example 1, defining the time point of mixing the bacterial suspension with the solution of ferulic acid, or vanillic acid as the reaction initiation (0 min), and continuing shaking (150 rpm) at 37° C., the absorbance (630 nm) was measured at 10, 20, 30, 40, 50, 60, 90, 120, and 180 min after the reaction initiation."}, "[2]": {"tested_on": "Bacillus subtilis C-3102 (FERM BP-1096)", "assay": "Germination induction by ferulic acid, vanillic acid or p-coumaric acid at 300 ppm, turbidity change (Example 3)", "assay_type": "cell-based", "settings": "for turbidity (630 nm): 37° C., 150 rpm", "experimental": "In each 500 mL of distilled water heated to 70° C. was added 0.3 g of ferulic acid, vanillic acid, or p-coumaric acid. After dissolving with stirring using a stirring rod with a propeller, filtration sterilization (0.45 μm filter) was conducted to prepare each 600 ppm-solution.\nNext, 500 μL aliquots of bacterial suspension of Bacillus subtilis C-3102 (FERM BP-1096) prepared by a similar method as in Example 1 were mixed with 500 μL of each of the ferulic acid, vanillic acid, and p-coumaric acid solutions, and the mixtures were adjusted to 300 ppm of ferulic acid, vanillic acid, or p-coumaric acid concentration. Defining the time point of mixing as the reaction initiation (0 min), and continuing shaking (150 rpm) at 37° C., the turbidity (630 nm) was measured at 10, 20, 30, 40, 50, 60, 90, 120, and 180 min after the reaction initiation."}, "[3]": {"tested_on": "C-3102 strain", "assay": "Long time culture of spore suspension with inducer, turbidity up to 24 hours (proliferation check, Example 4)", "assay_type": "cell-based, Bacillus subtilis", "settings": "500 μL spore suspension + 500 μL of 600 ppm solution", "experimental": "This Example is an experiment to examine whether proliferation is recognizable or not, when ferulic acid or vanillic acid is mixed with a spore suspension of the C-3102 strain and cultured for a long time period.\nThe C-3102 strain was cultured on a nutrient plate at 37° C. for 3 days, and thereafter bacterial cells were collected by a bacteria spreader and a spore suspension was prepared similarly as in Example 1 (OD 630=1.0). After mixing 500 μL of the C-3102 spore suspension with 500 μL of a 600 ppm-ferulic acid solution, or a 600 ppm-vanillic acid solution, change in the turbidity (630 nm) up to 24 hours was examined."}}}
{"smiles": "COc1cc(/C=C/C(=O)O)ccc1O", "note": "[Ferulic acid, ferulic acid]", "values": [{"measurement": "turbidity (630 nm)", "setting": "[1]; ferulic acid 10 ppm, 0 min after reaction initiation", "result": 0.584}, {"measurement": "turbidity (630 nm)", "setting": "[1]; ferulic acid 10 ppm, 10 min after reaction initiation", "result": 0.563}, {"measurement": "turbidity (630 nm)", "setting": "[1]; ferulic acid 10 ppm, 20 min after reaction initiation", "result": 0.553}, {"measurement": "turbidity (630 nm)", "setting": "[1]; ferulic acid 10 ppm, 30 min after reaction initiation", "result": 0.544}, {"measurement": "turbidity (630 nm)", "setting": "[1]; ferulic acid 10 ppm, 40 min after reaction initiation", "result": 0.533}, {"measurement": "turbidity (630 nm)", "setting": "[1]; ferulic acid 10 ppm, 50 min after reaction initiation", "result": 0.519}, {"measurement": "turbidity (630 nm)", "setting": "[1]; ferulic acid 10 ppm, 60 min after reaction initiation", "result": 0.507}, {"measurement": "turbidity (630 nm)", "setting": "[1]; ferulic acid 10 ppm, 90 min after reaction initiation", "result": 0.488}, {"measurement": "turbidity (630 nm)", "setting": "[1]; ferulic acid 10 ppm, 120 min after reaction initiation", "result": 0.447}, {"measurement": "turbidity (630 nm)", "setting": "[1]; ferulic acid 10 ppm, 180 min after reaction initiation", "result": 0.353}, {"measurement": "turbidity (630 nm)", "setting": "[1]; ferulic acid 100 ppm, 0 min after reaction initiation", "result": 0.583}, {"measurement": "turbidity (630 nm)", "setting": "[1]; ferulic acid 100 ppm, 10 min after reaction initiation", "result": 0.565}, {"measurement": "turbidity (630 nm)", "setting": "[1]; ferulic acid 100 ppm, 20 min after reaction initiation", "result": 0.556}, {"measurement": "turbidity (630 nm)", "setting": "[1]; ferulic acid 100 ppm, 30 min after reaction initiation", "result": 0.53}, {"measurement": "turbidity (630 nm)", "setting": "[1]; ferulic acid 100 ppm, 40 min after reaction initiation", "result": 0.52}, {"measurement": "turbidity (630 nm)", "setting": "[1]; ferulic acid 100 ppm, 50 min after reaction initiation", "result": 0.500}, {"measurement": "turbidity (630 nm)", "setting": "[1]; ferulic acid 100 ppm, 60 min after reaction initiation", "result": 0.484}, {"measurement": "turbidity (630 nm)", "setting": "[1]; ferulic acid 100 ppm, 90 min after reaction initiation", "result": 0.448}, {"measurement": "turbidity (630 nm)", "setting": "[1]; ferulic acid 100 ppm, 120 min after reaction initiation", "result": 0.383}, {"measurement": "turbidity (630 nm)", "setting": "[1]; ferulic acid 100 ppm, 180 min after reaction initiation", "result": 0.247}, {"measurement": "turbidity (630 nm)", "setting": "[1]; ferulic acid 300 ppm, 0 min after reaction initiation", "result": 0.579}, {"measurement": "turbidity (630 nm)", "setting": "[1]; ferulic acid 300 ppm, 10 min after reaction initiation", "result": 0.56}, {"measurement": "turbidity (630 nm)", "setting": "[1]; ferulic acid 300 ppm, 20 min after reaction initiation", "result": 0.547}, {"measurement": "turbidity (630 nm)", "setting": "[1]; ferulic acid 300 ppm, 30 min after reaction initiation", "result": 0.530}, {"measurement": "turbidity (630 nm)", "setting": "[1]; ferulic acid 300 ppm, 40 min after reaction initiation", "result": 0.520}, {"measurement": "turbidity (630 nm)", "setting": "[1]; ferulic acid 300 ppm, 50 min after reaction initiation", "result": 0.499}, {"measurement": "turbidity (630 nm)", "setting": "[1]; ferulic acid 300 ppm, 60 min after reaction initiation", "result": 0.466}, {"measurement": "turbidity (630 nm)", "setting": "[1]; ferulic acid 300 ppm, 90 min after reaction initiation", "result": 0.422}, {"measurement": "turbidity (630 nm)", "setting": "[1]; ferulic acid 300 ppm, 120 min after reaction initiation", "result": 0.354}, {"measurement": "turbidity (630 nm)", "setting": "[1]; ferulic acid 300 ppm, 180 min after reaction initiation", "result": 0.22}, {"measurement": "turbidity (630 nm)", "setting": "[1]; ferulic acid 600 ppm, 0 min after reaction initiation", "result": 0.586}, {"measurement": "turbidity (630 nm)", "setting": "[1]; ferulic acid 600 ppm, 10 min after reaction initiation", "result": 0.552}, {"measurement": "turbidity (630 nm)", "setting": "[1]; ferulic acid 600 ppm, 20 min after reaction initiation", "result": 0.545}, {"measurement": "turbidity (630 nm)", "setting": "[1]; ferulic acid 600 ppm, 30 min after reaction initiation", "result": 0.526}, {"measurement": "turbidity (630 nm)", "setting": "[1]; ferulic acid 600 ppm, 40 min after reaction initiation", "result": 0.515}, {"measurement": "turbidity (630 nm)", "setting": "[1]; ferulic acid 600 ppm, 50 min after reaction initiation", "result": 0.506}, {"measurement": "turbidity (630 nm)", "setting": "[1]; ferulic acid 600 ppm, 60 min after reaction initiation", "result": 0.477}, {"measurement": "turbidity (630 nm)", "setting": "[1]; ferulic acid 600 ppm, 90 min after reaction initiation", "result": 0.447}, {"measurement": "turbidity (630 nm)", "setting": "[1]; ferulic acid 600 ppm, 120 min after reaction initiation", "result": 0.379}, {"measurement": "turbidity (630 nm)", "setting": "[1]; ferulic acid 600 ppm, 180 min after reaction initiation", "result": 0.246}, {"measurement": "germination induction versus concentration", "setting": "[1]; ferulic acid of 10 to 600 ppm", "result": "germination was inducted at any concentration to the same extent"}, {"measurement": "germination confirmed by turbidity decrease", "setting": "[2]", "result": "decreased, thereby to confirm germination"}, {"measurement": "turbidity (630 nm)", "setting": "[2]; 0 min after reaction initiation", "result": 0.545}, {"measurement": "turbidity (630 nm)", "setting": "[2]; 10 min after reaction initiation", "result": 0.527}, {"measurement": "turbidity (630 nm)", "setting": "[2]; 20 min after reaction initiation", "result": 0.513}, {"measurement": "turbidity (630 nm)", "setting": "[2]; 30 min after reaction initiation", "result": 0.484}, {"measurement": "turbidity (630 nm)", "setting": "[2]; 40 min after reaction initiation", "result": 0.466}, {"measurement": "turbidity (630 nm)", "setting": "[2]; 50 min after reaction initiation", "result": 0.449}, {"measurement": "turbidity (630 nm)", "setting": "[2]; 60 min after reaction initiation", "result": 0.413}, {"measurement": "turbidity (630 nm)", "setting": "[2]; 90 min after reaction initiation", "result": 0.368}, {"measurement": "turbidity (630 nm)", "setting": "[2]; 120 min after reaction initiation", "result": 0.313}, {"measurement": "turbidity (630 nm)", "setting": "[2]; 180 min after reaction initiation", "result": 0.233}, {"measurement": "turbidity (630 nm)", "setting": "[3]; reaction time 0 hr", "result": 0.574}, {"measurement": "turbidity (630 nm)", "setting": "[3]; reaction time 0.5 hr", "result": 0.543}, {"measurement": "turbidity (630 nm)", "setting": "[3]; reaction time 1 hr", "result": 0.502}, {"measurement": "turbidity (630 nm)", "setting": "[3]; reaction time 1.5 hr", "result": 0.464}, {"measurement": "turbidity (630 nm)", "setting": "[3]; reaction time 2 hr", "result": 0.425}, {"measurement": "turbidity (630 nm)", "setting": "[3]; reaction time 3 hr", "result": 0.370}, {"measurement": "turbidity (630 nm)", "setting": "[3]; reaction time 24 hr", "result": 0.178}]}
